In patent US9273067B2, “Pyrazolopyrimidine macrocycles as inhibitors of human immunodeficiency virus replication” (BRISTOL-MYERS SQUIBB COMPANY, priority 2014, dated 2016):
Read-outs that look alike come from different tables or passages of the source.

Columns and labels:
[1] = from C=CCOC1(C)CCN(c2c([C@H](OC(C)(C)C)C(=O)O)c(C)nc3cc(COCc4ccc(Cl)cc4O[C@@H](C)CC=C)nn23)CC1; rcm bond; 20-membered ring; Hoveyda-Grubbs II/CuI; DCE; 31.5 mM; 90.0 °C; 1.5 h
[2] = tested on: NL-RLuc virus (recombinant HIV NL4-3 with Renilla Luciferase) in MT-2 cells; test: Inhibition of HIV replication (NL-RLuc virus in MT-2 cells, luciferase readout); type: cell-based, human immunodeficiency virus (HIV); details: MT2, 120 h, NL-RLuc virus infecting MT-2 cells, 5 days of incubation, 10% FBS, luciferase quantitation; at least 2 experiments
How it was run: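 NL4-3 carrying Renilla luciferase in place of part of nef, produced in 293T cells, was used to infect MT-2 cells in RPMI 1640/10% FBS with serial compound dilutions. After 5 days, virus growth was read by luciferase. EC50 came from the median effect equation over at least 2 experiments.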

Structure (SMILES): CCOC(=O)[C@@H](OC(C)(C)C)c1c(C)nc2cc3nn2c1N1CCC(C)(CC1)OCC=CCc1cc(C)ccc1COC3
- ring closure, isolated yield (from C=CCOC1(C)CCN(c2c([C@H](OC(C)(C)C)C(=O)OCC)c(C)nc3cc(COCc4ccc(C)cc4CC=C)nn23)CC1, rcm bond, 18-membered ring, Grubbs II (1 eq), then NaBH4/MeOH, DCM, 1.62 mM, 40.0 °C, 2.0 h, 2 steps): 62.6%

Structure (SMILES): CCOC(=O)[C@@H](OC(C)(C)C)c1c(C)nc2cc3nn2c1N1CCC(C)(CC1)OCC=CCc1cc(F)c(F)cc1COC3
- ring closure, isolated yield (from C=CCOC1(C)CCN(c2c([C@H](OC(C)(C)C)C(=O)OCC)c(C)nc3cc(COCc4cc(F)c(F)cc4CC=C)nn23)CC1, rcm bond, 18-membered ring, Grubbs II (0.1 eq), then NaBH4/MeOH, DCM, 1.56 mM, 40.0 °C, 2.0 h, 2 steps): 62.5%

Structure (SMILES): CCOC(=O)[C@@H](OC(C)(C)C)c1c(C)nc2cc3nn2c1N1CCC(C)(CC1)OCC=Cc1ccccc1CC=C3
- ring closure, isolated yield (from C=CCOC1(C)CCN(c2c([C@H](OC(C)(C)C)C(=O)OCC)c(C)nc3cc(C=CCc4ccccc4Br)nn23)CC1, cc_pd bond, 17-membered ring, Pd2(dba)3/PPh3/Et3N, acetonitrile, 35.2 mM, 120.0 °C, 20.0 h): 51.6%

Structure (SMILES): CCOC(=O)[C@@H](OC(C)(C)C)c1c(C)nc2cc3nn2c1N1CCC(C)(CC1)OCC=CCc1ccccc1COC3
- ring closure, isolated yield (from C=CCOC1(C)CCN(c2c([C@H](OC(C)(C)C)C(=O)OCC)c(C)nc3cc(COCc4ccccc4CC=C)nn23)CC1, rcm bond, 18-membered ring, Hoveyda-Grubbs II (20 mol%)/CuI, 1,2-dichloroethane, 1.4 mM, 70.0 °C, 2.0 h): 76%

Structure (SMILES): CCOC(=O)[C@@H](OC(C)(C)C)c1c(C)nc2cc3nn2c1N1CCC(C)(CC1)OCC=CCc1cc(F)ccc1COC3
- ring closure, isolated yield (from C=CCOC1(C)CCN(c2c([C@H](OC(C)(C)C)C(=O)OCC)c(C)nc3cc(COCc4ccc(F)cc4CC=C)nn23)CC1, rcm bond, 18-membered ring, Grubbs II (1 eq), then NaBH4/MeOH, DCM, 1.6 mM, 40.0 °C, 2.0 h, 2 steps): 44.7%

Structure (SMILES): CCOC(=O)[C@@H](OC(C)(C)C)c1c(C)nc2cc3nn2c1N1CCC(C)(CC1)OCC=Cc1cc(C(F)(F)F)ccc1COC3
- ring closure, isolated yield (from C=CCOC1(C)CCN(c2c([C@H](OC(C)(C)C)C(=O)OCC)c(C)nc3cc(COCc4ccc(C(F)(F)F)cc4Br)nn23)CC1, cc_pd bond, 17-membered ring, Pd2(dba)3/PPh3/Et3N, MeCN, 35.1 mM, 120.0 °C, 23.0 h): 62.9%

Structure (SMILES): COC(=O)[C@@H](OC(C)(C)C)c1c(C)nc2cc3nn2c1N1CCC(C)(CC1)OCC=Cc1ccccc1COC3
- ring closure, isolated yield (from C=CCOC1(C)CCN(c2c([C@H](OC(C)(C)C)C(=O)OC)c(C)nc3cc(COCc4ccccc4Br)nn23)CC1, cc_pd bond, 17-membered ring, Pd2(dba)3/PPh3/Et3N, acetonitrile, 40.0 mM, 120.0 °C, 18.0 h): 78%

Structure (SMILES): CCOC(=O)[C@@H](OC(C)(C)C)c1c(C)nc2cc3nn2c1N1CCC(C)(CC1)OCC=CCCc1cccc(c1)COC3
- ring closure, isolated yield (from C=CCCc1cccc(COCc2cc3nc(C)c([C@H](OC(C)(C)C)C(=O)OCC)c(N4CCC(C)(OCC=C)CC4)n3n2)c1, rcm bond, 20-membered ring, Grubbs II, DCM, 1.62 mM, 2.0 h, 2 steps): 41.8%

Structure (SMILES): Cc1nc2cc3nn2c(c1[C@H](OC(C)(C)C)C(=O)O)N1CCC(C)(CC1)OCC=CC[C@H](C)Oc1cc(Cl)ccc1COC3 [Example 34, (2S)-2-(tert-Butoxy)-2-[(20S)-16-chloro-4,20,26-trimethyl-11,19,25-trioxa-1,5,7,8-tetraazapentacyclo[24.2.2.1^6,^9.0^2,^7.0^13,^18]hentriaconta-2,4,6(31),8,13,15,17,22-octaen-3-yl]acetic acid]
- ring closure, yield after HPLC [1]: 7.32%
- EC50 [2]: 5 nM
